Results reported in US12673947B2 (Cytosinlab Therapeutics Co., Ltd., priority 2020, dated 2026).
Counter-ions that a name gives are not always drawn. Like-named read-outs stand apart in the source and are kept apart here.

Tests used:
[1] = target: T1, FLT3 (Homo sapiens, UniProt P36888); assay: FLT3 kinase in vitro inhibitory activity experiment (Caliper mobility shift, conversion rate); type: biochemical; conditions: IC50 class, read-out: Enzyme activity FLT3
T1 construct: purchased Carna 08-145
T1 sequence (P36888 27-993): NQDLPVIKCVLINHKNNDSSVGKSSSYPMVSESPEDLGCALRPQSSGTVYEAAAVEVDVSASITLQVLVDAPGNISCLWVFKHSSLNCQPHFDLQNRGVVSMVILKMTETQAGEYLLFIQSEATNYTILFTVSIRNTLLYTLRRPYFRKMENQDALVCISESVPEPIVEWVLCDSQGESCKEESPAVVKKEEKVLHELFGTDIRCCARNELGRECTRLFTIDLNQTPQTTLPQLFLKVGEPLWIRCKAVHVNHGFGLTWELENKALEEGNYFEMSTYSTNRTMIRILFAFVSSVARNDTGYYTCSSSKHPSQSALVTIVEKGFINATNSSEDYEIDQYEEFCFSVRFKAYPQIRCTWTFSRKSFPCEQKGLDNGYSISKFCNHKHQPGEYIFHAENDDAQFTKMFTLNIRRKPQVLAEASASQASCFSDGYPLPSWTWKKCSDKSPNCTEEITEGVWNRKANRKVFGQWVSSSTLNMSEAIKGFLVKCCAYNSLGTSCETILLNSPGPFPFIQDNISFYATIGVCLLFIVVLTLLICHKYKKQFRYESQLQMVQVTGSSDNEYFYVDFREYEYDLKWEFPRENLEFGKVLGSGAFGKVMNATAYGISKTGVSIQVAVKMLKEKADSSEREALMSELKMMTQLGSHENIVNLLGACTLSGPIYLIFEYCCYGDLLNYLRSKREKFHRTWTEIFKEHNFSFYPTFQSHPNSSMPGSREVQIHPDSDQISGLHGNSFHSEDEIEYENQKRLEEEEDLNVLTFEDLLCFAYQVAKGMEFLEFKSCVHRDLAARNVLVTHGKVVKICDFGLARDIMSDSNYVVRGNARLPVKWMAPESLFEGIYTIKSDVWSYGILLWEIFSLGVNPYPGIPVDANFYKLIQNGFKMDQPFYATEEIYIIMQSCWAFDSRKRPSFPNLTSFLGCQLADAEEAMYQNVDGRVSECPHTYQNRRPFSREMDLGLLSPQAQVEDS
Method: Biological Test Example 1: FLT3 Kinase In Vitro Inhibitory Activity Experiment
Centrifuge (manufacturer: Eppendorf, model: 5430), microplate reader (manufacturer: Perkin Elmer, model: Caliper EZ Reader II), Echo 550 (manufacturer: Labcyte, model: Echo 550)
1. Kinase Reaction Process
• (1) 1×Kinase buffer was prepared. • (2) Preparation of the serial compound dilutions: the initial stock (the concentration of the tested compound was 1 μM) was diluted by 3-fold into 10 concentrations, and was single-well detected. The compounds were series diluted to solutions of 10 different concentration (100-folds final concentration) in 384-well plates. 250 nl of solution was transferred to each well of 384-well plate by Echo550. 100% DMSO (250 nl) was added to negative control wells and positive control wells respectively. • (3) Kinase solution (2.5 times final concentration) was prepared with 1×Kinase buffer. • (4) 10 μL of kinase solution (2.5 times final concentration) was added to compound wells and positive control wells respectively: 1×Kinase buffer (10 μL) was added to the negative control wells. • (5) The solution was centrifuged at 1000 rpm for 30 seconds, shaked and mixed, and incubated at room temperature for 10 minutes. • (6) The mixed solution of ATP and Kinase substrate 2 (25/15 times final concentration) was prepared with 1×Kinase buffer. • (7) 15 μL of mixed solution ATP and Kinase substrate 2 (25/15 times final concentration) was added to initiated the reaction. • (8) 384 well plate was centrifuged at 1000 rpm for 30 seconds, shaked and mixed, then incubated at room temperature for 30 minutes. • (9) Stop solution (30 μL) was added to stop kinase reaction, and the solution was centrifuged at 1000 rpm for 30 seconds, shaked and mixed. • (10) The conversion rate was read with Caliper EZ Reader II. 2. Data Analysis Formula for Calculation
Wherein: Conversion %_sample is the reading of the sample conversion; Conversion %_min: negative control well.

[2] = system: MV4;11 cells; assay: MV4;11 in vitro inhibition of proliferation assay (CellTiter-Glo, 72 hours); type: cell-based; conditions: IC50 class, read-out: Inhibitory activity of cell proliferation MV4;11
Excerpt: Biological Test Example 2: MV4;11 In Vitro Inhibition of Proliferation Assay
The MV4;11 cell lines were purchased from the cell bank of the Chinese Academy of Sciences, IMDM medium (Gibco, catalog number 12440), fetal bovine serum (Gibco, catalog number 10099141C), penicillin-streptomycin antibiotics (Gibco, catalog number 15140122), DMSO (Sigma, catalog number D2650), Celltiter-Glo kit (CTG) (Promega, catalog number G7573), 384-well clear flat-bottom black cell culture plate (Corning, catalog number 3764), D300e digital dispenser (Tecan, catalog number D300e), SpectraMax i3x microplate reader (MOLECULAR DEVICES, catalog number i3x)
MV4;11 cell was cultivated in IMDM, 10% fetal bovine serum, 1% penicillin-streptomycin antibiotics, and cell density was kept less than 1.0*10E6 cells per ml to ensure that it was always in logarithmic growth phase. Cell viability was greater than 95%.
The compounds to be tested was diluted by 3 times from 10 uM with DMSO to 9 concentrations. 60 nl diluted compound was added to the cell culture plate and three duplicates were set up.
The prepared MV4;11 cell suspension was added to the 384-well plate, and 20 microliters of cell suspension was added per well, i.e., each well contained 2000 MV4;11 cells, of which the final concentration of DMSO was 0.3%. The cell culture plate was placed in 37° C. and incubated in a 5% carbon dioxide incubator for 72 hours.
20 μL of Promega CellTiter-Glo reagent was added to per well, and the plate was incubated at room temperature for 10 minutes when the luminescence signals were stable. SpectraMax i3x microplate reader was used to read signals.
The original data was converted into inhibition rate, and the IC50 value (half inhibition concentration) of the compound was determined by fitting the nonlinear four-parameter curve.

SMILES	IC50 [1] [nM]	IC50 ([2]; Homo sapiens, MV4-11, 72 h) [nM]	IC50 [2] [nM]
CCc1nc2c(N)ncc(-c3cnn(C4C[C@H]5CC[C@@H](C4)N5)c3)c2nc1N[C@@H]1CC[C@H](O)C1 (single isomer, unassigned) [Compound 162]	≤ 10		100 to 500
CCc1nc2c(N)ncc(-c3cnn(C4C[C@H]5CC[C@@H](C4)N5)c3)c2nc1N[C@@H]1CC[C@H](O)C1 (single isomer, unassigned) [Compound 163]	≤ 10		10 to 100
CCc1nc2c(N)ncc(-c3cnn(C4C[C@H]5CC[C@@H](C4)N5C)c3)c2nc1N[C@@H]1CC[C@H](O)C1 (single isomer, unassigned) [Compound 164]	≤ 10	10 to 100	
CCc1nc2c(N)ncc(-c3cnn(C4C[C@H]5CC[C@@H](C4)N5C)c3)c2nc1N[C@@H]1CC[C@H](O)C1 (single isomer, unassigned) [Compound 165]	≤ 10		≤ 10
CCc1nc2c(N)ncc(-c3cnn(C4CCC(C)(O)CC4)c3)c2nc1N[C@@H]1CC[C@H](O)C1 (single isomer, unassigned) [Compound 285]	≤ 10		≤ 10
CCc1nc2c(N)nccc2nc1NC1CCOCC1 [Compound 1]	> 500	> 500	
CCc1nc2c(N)ncc(Br)c2nc1NC1CCOCC1 [Compound 2, 8-Bromo-3-ethyl-N2-(tetrahydro-2H-pyran-4-yl)pyridino[3,4-b]pyrazine-2,5-diamine]	100 to 500	> 500	
CCc1nc2c(N)ncc(-c3cccc(OC)c3)c2nc1NC1CCOCC1 [Compound 3]	10 to 100	> 500	
CCc1nc2c(Cl)ncc(-c3ccc(N4CCC(N5CCNCC5)CC4)c(OC)c3)c2nc1NC1CCOCC1 [Compound 11]	10 to 100	> 500	
CCc1nc2c(N)ncc(-c3ccc(N4CCC(N5CCN(C)CC5)CC4)nc3)c2nc1NC1CCOCC1 [Compound 21]	10 to 100	100 to 500	
COc1cc(-c2cnc(N)c3nc(C)c(NC4CCOCC4)nc23)ccc1N1CCC(N2CCN(C)CC2)CC1 [Compound 26]	10 to 100	100 to 500	
CCc1nc2c(N)ncc(-c3ccc(N4CCC5(CCN(C)CC5)CC4)c(OC)c3)c2nc1NC1CCOCC1 [Compound 32]	≤ 10	10 to 100	
CCc1nc2c(N)ncc(-c3ccc(N4CCC5(CC4)CN(C)C5)c(OC)c3)c2nc1NC1CCOCC1 [Compound 33]	≤ 10	10 to 100	
CCc1nc2c(N)ncc(-c3ccc(N4CCC(N5CCNCC5)CC4)c(OC)c3)c2nc1NC1CCOCC1 [Compound 35]	≤ 10	10 to 100	
CCc1nc2c(N)ncc(-c3ccc(N4CCN(C5CCN(C)CC5)CC4)c(OC)c3)c2nc1NC1CCOCC1 [Compound 36]	≤ 10	10 to 100	
CCc1nc2c(N)ncc(-c3ccc(N4CCN(C)CC4)c(OC)c3)c2nc1NC1CCOCC1 [Compound 37]	≤ 10	10 to 100	
CCc1nc2c(N)ncc(-c3ccc(N4CCOCC4)c(OC)c3)c2nc1NC1CCOCC1 [Compound 38]	≤ 10	10 to 100	
CCc1nc2c(N)ncc(-c3ccc(N4CCC(O)CC4)c(OC)c3)c2nc1NC1CCOCC1 [Compound 39]	≤ 10	10 to 100	
CCc1nc2c(N)ncc(-c3ccc(N4CCC(N5CCN(C)CC5)CC4)c(OC)c3)c2nc1NC1CCC(O)CC1 (centres unmarked) [Compound 82]		10 to 100	

More lines, main results first:

IC50 [1] [nM]	IC50 ([2]; Homo sapiens, MV4-11, 72 h) [nM]	SMILES	IC50 [2] [nM]
≤ 10	≤ 10	CCc1nc2c(N)ncc(-c3cnn(C4CCC(C)(O)CC4)c3)c2nc1N[C@@H]1CC[C@H](O)C1 (single isomer, unassigned) [Compound 284]	
≤ 10	10 to 100	CCc1nc2c(N)ncc(-c3ccc(N4CCC(N5CCN(C)CC5)CC4)cc3)c2nc1NC1CCOCC1 [Compound 7]	
≤ 10	10 to 100	CCc1nc2c(N)ncc(-c3ccc(N4CCC(N5CCN(C)CC5)CC4)c(OC)c3)c2nc1NC1CCOCC1 [Compound 8, 3-ethyl-8-(3-methoxy-4-(4-(4-methylpiperazin-1-yl)piperidin-1-yl)phenyl)-N2-(tetrahydropyran-4-yl)pyrido[3,4-b]pyrazine-2,5-diamine trihydrochloride]	
≤ 10	10 to 100	CCc1nc2c(N)ncc(-c3ccc(N4CCC(N5CCN(C)CC5)CC4)c(C)c3)c2nc1NC1CCOCC1 [Compound 13]	
≤ 10	10 to 100	CCc1nc2c(N)ncc(-c3ccc(N4CCC(N5CCN(C)CC5)CC4)c(F)c3)c2nc1NC1CCOCC1 [Compound 14]	
≤ 10	10 to 100	CCc1nc2c(N)ncc(-c3ccc(N4CCC(N5CCN(C)CC5)CC4)c(C#N)c3)c2nc1NC1CCOCC1 [Compound 15]	
≤ 10	10 to 100	CCc1nc2c(N)ncc(-c3ccc(N4CCC(N5CCN(C)CC5)CC4)c(C(F)(F)F)c3)c2nc1NC1CCOCC1 [Compound 16]	
≤ 10	10 to 100	CCc1nc2c(N)ncc(-c3ccc(N4CCC(N5CCN(C)CC5)CC4)c(OC(F)(F)F)c3)c2nc1NC1CCOCC1 [Compound 17]	
≤ 10	10 to 100	CCc1nc2c(N)ncc(-c3ccc(N4CCC(N5CCN(C)CC5)CC4)c(OC(C)C)c3)c2nc1NC1CCOCC1 [Compound 22]	
≤ 10	10 to 100	CCc1nc2c(N)ncc(-c3ccc(N4CCC(N5CCN(C)CC5)CC4)c(OCCOC)c3)c2nc1NC1CCOCC1 [Compound 23]	
≤ 10	10 to 100	COc1cc(-c2cnc(N)c3nc(C(C)C)c(NC4CCOCC4)nc23)ccc1N1CCC(N2CCN(C)CC2)CC1 [Compound 27]	
≤ 10	10 to 100	CCCc1nc2c(N)ncc(-c3ccc(N4CCC(N5CCN(C)CC5)CC4)c(OC)c3)c2nc1NC1CCOCC1 [Compound 28]	
≤ 10	10 to 100	CCc1nc2c(N)ncc(-c3ccc(N4CCC5(CCN(C)CC5)CC4)c(C)c3)c2nc1NC1CCOCC1 [Compound 31]	
	≤ 10	CCc1nc2c(N)ncc(-c3cnn(C4CCOCC4)c3)c2nc1N[C@@H]1CC[C@H](O)C1 [Compound 191]	
	≤ 10	CCc1nc2c(N)ncc(-c3cnn(-c4ccc(C#N)cn4)c3)c2nc1N[C@@H]1CC[C@H](O)C1 [Compound 300]	
